Data reported in US20220153746A1, “NITROGEN OXIDE-DONATING PDE-5 AND/OR PDE-6 INHIBITOR COMPOUNDS, AND USES THEREOF” (ILDONG PHARMACEUTICAL CO., LTD., priority 2020, published 2022).

Columns and labels:
human PDE-6C = human PDE-6C (Homo sapiens, UniProt P51160); assay: Human PDE-6C inhibition assay (fluorescence polarization, FAM-cGMP); type: biochemical; settings: read-out: IC50 (μM) PDE6C
human PDE-5A1 = human PDE-5A1 (Homo sapiens, UniProt O76074); assay: Human PDE-5A1 inhibition assay (fluorescence polarization, FAM-cGMP); type: biochemical; settings: read-out: IC50 (μM) PDE5A1

human PDE-6C, sequence (P51160 whole entry): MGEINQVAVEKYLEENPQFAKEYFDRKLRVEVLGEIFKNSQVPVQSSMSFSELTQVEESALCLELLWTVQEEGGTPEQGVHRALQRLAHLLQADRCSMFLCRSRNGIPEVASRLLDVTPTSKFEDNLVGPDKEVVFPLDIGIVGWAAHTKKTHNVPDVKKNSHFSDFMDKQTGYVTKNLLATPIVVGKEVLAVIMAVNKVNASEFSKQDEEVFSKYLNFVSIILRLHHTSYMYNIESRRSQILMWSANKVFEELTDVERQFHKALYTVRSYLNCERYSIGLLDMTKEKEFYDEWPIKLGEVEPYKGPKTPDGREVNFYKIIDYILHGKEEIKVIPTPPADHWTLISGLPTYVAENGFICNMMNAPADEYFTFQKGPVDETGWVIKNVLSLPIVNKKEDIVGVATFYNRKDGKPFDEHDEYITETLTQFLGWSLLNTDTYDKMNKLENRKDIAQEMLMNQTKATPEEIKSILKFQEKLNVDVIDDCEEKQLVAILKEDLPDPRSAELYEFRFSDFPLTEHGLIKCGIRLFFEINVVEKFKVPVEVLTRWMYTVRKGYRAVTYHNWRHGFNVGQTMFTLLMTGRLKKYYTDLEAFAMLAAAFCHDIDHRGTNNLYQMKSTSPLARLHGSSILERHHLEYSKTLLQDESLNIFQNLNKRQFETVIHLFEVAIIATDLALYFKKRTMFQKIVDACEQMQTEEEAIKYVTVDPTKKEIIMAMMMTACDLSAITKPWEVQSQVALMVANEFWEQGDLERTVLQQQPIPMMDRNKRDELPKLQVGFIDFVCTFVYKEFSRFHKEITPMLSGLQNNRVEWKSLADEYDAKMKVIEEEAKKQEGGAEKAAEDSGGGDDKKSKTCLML

Row | Structure (SMILES) | IC50 (human PDE-6C) [µM] | IC50 (human PDE-5A1) [µM]
1 | CCCc1nn(C)c2c(=O)[nH]c(-c3cc(S(=O)(=O)N4CC(O)C4)ccc3OCC)nc12 [Compound 1, 5-(2-ethoxy-5-((3-hydroxyazetidin-1-yl)sulfonyl)phenyl)-1-methyl-3-propyl-1,6-dihydro-7H-pyrazolo[4,3-d] pyrimidin-7-one] | 0.01 to 0.1 | 0.01 to 0.1
2 | CCCc1nn(C)c2c(=O)[nH]c(-c3cc(S(=O)(=O)NC4CN(CCO)C4)ccc3OCC)nc12 [Compound 6, 4-ethoxy-N-(1-(2-hydroxyethyl)azetidin-3-yl)-3-(1-methyl-7-oxo-3-propyl-6,7-dihydro-1H-pyrazolo[4,3-d]pyrimidin-5-yl)benzenesulfonamide] | 0.01 to 0.1 | 0.01 to 0.1
3 | CCCc1nn(C)c2c(=O)[nH]c(-c3cc(S(=O)(=O)NC4CN(CCCCO)C4)ccc3OCC)nc12 [Compound 8, 4-ethoxy-N-(1-(4-hydroxybutyl)azetidin-3-yl)-3-(1-methyl-7-oxo-3-propyl-6,7-dihydro-1H-pyrazolo[4,3-d]pyrimidin-5-yl)benzenesulfonamide] | 0.01 to 0.1 | 0.01 to 0.1
4 | CCCc1nc(C)c2c(=O)[nH]c(-c3cc(S(=O)(=O)N4CC(O)C4)ccc3OCC)nn12 [Compound 41, 2-(2-ethoxy-5-((3-hydroxyazetidin-1-yl)sulfonyl)phenyl)-5-methyl-7-propylimidazo[5,1-f][1,2,4]triazin-4(3H)-one] | – | < 0.01
5 | CCCc1nc(C)c2c(=O)[nH]c(-c3cc(S(=O)(=O)N4CC(CO)C4)ccc3OCC)nn12 [Compound 42, 2-(2-ethoxy-5-((3-(hydroxymethyl)azetidin-1-yl)sulfonyl)phenyl)-5-methyl-7-propylimidazo[5,1-f][1,2,4]triazin-4(3H)-one] | – | < 0.01
6 | CCCc1nc(C)c2c(=O)[nH]c(-c3cc(S(=O)(=O)N4CC(CN)C4)ccc3OCC)nn12 [Compound 45] | – | < 0.01
7 | CCCc1nc(C)c2c(=O)[nH]c(-c3cc(S(=O)(=O)N4CC(NCCO)C4)ccc3OCC)nn12 [Compound 49, 2-(2-ethoxy-5-((3-((2-hydroxyethyl)amino)azetidin-1-yl)sulfonyl)phenyl)-5-methyl-7-propylimidazo[5,1-f][1,2,4]triazin-4(3H)-one] | – | < 0.01
8 | CCCc1nc(C)c2c(=O)[nH]c(-c3cc(S(=O)(=O)N4CC(N(C)CCCO)C4)ccc3OCC)nn12 [Compound 53, 2-(2-ethoxy-5-((3-((3-hydroxypropyl)(methyl)amino)azetidin-1-yl)sulfonyl)phenyl)-5-methyl-7-propylimidazo[5,1-f][1,2,4]triazin-4(3H)-one] | – | < 0.01
9 | CCCc1nc(C)c2c(=O)[nH]c(-c3cc(S(=O)(=O)N4CC(O[N+](=O)[O-])C4)ccc3OCC)nn12 [Compound 55, 1-((4-ethoxy-3-(5-methyl-4-oxo-7-propyl-3,4-dihydroimidazo[5,1-f][1,2,4]triazin-2-yl)phenyl)sulfonyl)azetidin-3-yl nitrate] | – | < 0.01
10 | CCCc1nc(C)c2c(=O)[nH]c(-c3cc(S(=O)(=O)N4CC(CO[N+](=O)[O-])C4)ccc3OCC)nn12 [Compound 56, (1-((4-ethoxy-3-(5-methyl-4-oxo-7-propyl-3,4-dihydroimidazo[5,1-f][1,2,4]triazin-2-yl)phenyl)sulfonyl)azetidin-3-yl)methyl nitrate] | – | < 0.01
11 | CCCc1nc(C)c2c(=O)[nH]c(-c3cc(S(=O)(=O)N4CC(NCCCO[N+](=O)[O-])C4)ccc3OCC)nn12 [Compound 62, 3-((1-((4-ethoxy-3-(5-methyl-4-oxo-7-propyl-3,4-dihydroimidazo[5,1-f][1,2,4]triazin-2-yl)phenyl)sulfonyl)azetidin-3-yl)amino)propyl nitrate] | – | < 0.01
12 | CCCc1nc(C)c2c(=O)[nH]c(-c3cc(S(=O)(=O)N4CC(N(C)CCO[N+](=O)[O-])C4)ccc3OCC)nn12 [Compound 63, 2-((1-((4-ethoxy-3-(5-methyl-4-oxo-7-propyl-3,4-dihydroimidazo[5,1-f][1,2,4]triazin-2-yl)phenyl)sulfonyl)azetidin-3-yl)(methyl)amino)ethyl nitrate] | – | < 0.01

The next lines start with the values.

Row | IC50 (human PDE-6C) [µM] | IC50 (human PDE-5A1) [µM] | Structure (SMILES)
13 | 0.01 to 0.1 | 0.01 to 0.1 | CCCc1nn(C)c2c(=O)[nH]c(-c3cc(S(=O)(=O)N4CC(CO)C4)ccc3OCC)nc12 [Compound 2, 5-(2-ethoxy-5-((3-(hydroxymethyl)azetidin-1-yl)sulfonyl)phenyl)-1-methyl-3-propyl-1,6-dihydro-7H-pyrazolo[4,3-d]pyrimidin-7-one]
14 | < 0.01 | < 0.01 | CCCc1nn(C)c2c(=O)[nH]c(-c3cc(S(=O)(=O)N4CC(CCO)C4)ccc3OCC)nc12 [Compound 3, 5-(2-ethoxy-5-((3-(2-hydroxyethyl)azetidin-1-yl)sulfonyl)phenyl)-1-methyl-3-propyl-1,6-dihydro-7H-pyrazolo[4,3-d]pyrimidin-7-one]
15 | 0.01 to 0.1 | > 0.1 | CCCc1nn(C)c2c(=O)[nH]c(-c3cc(S(=O)(=O)N4CC(CN)C4)ccc3OCC)nc12 [Compound 5, 5-(5-((3-(aminomethyl)azetidin-1-yl)sulfonyl)-2-ethoxyphenyl)-1-methyl-3-propyl-1,6-dihydro-7H-pyrazolo[4,3-d] pyrimidin-7-one]
16 | 0.01 to 0.1 | 0.01 to 0.1 | CCCc1nn(C)c2c(=O)[nH]c(-c3cc(S(=O)(=O)NC4CN(CCCO)C4)ccc3OCC)nc12 [Compound 7, 4-ethoxy-N-(1-(3-hydroxypropyl)azetidin-3-yl)-3-(1-methyl-7-oxo-3-propyl-6,7-dihydro-1H-pyrazolo[4,3-d]pyrimidin-5-yl)benzenesulfonamide]
17 | 0.01 to 0.1 | 0.01 to 0.1 | CCCc1nn(C)c2c(=O)[nH]c(-c3cc(S(=O)(=O)N4CC(NCCO)C4)ccc3OCC)nc12 [Compound 9, 5-(2-ethoxy-5-((3-((2-hydroxyethyl)amino)azetidin-1-yl)sulfonyl)phenyl)-1-methyl-3-propyl-1,6-dihydro-7H-pyrazolo[4,3-d]pyrimidin-7-one]
18 | – | < 0.01 | CCCc1nc(C)c2c(=O)[nH]c(-c3cc(S(=O)(=O)N4CC(CCO)C4)ccc3OCC)nn12 [Compound 43, 2-(2-ethoxy-5-((3-(2-hydroxyethyl)azetidin-1-yl)sulfonyl)phenyl)-5-methyl-7-propylimidazo[5,1-f][1,2,4]triazin-4(3H)-one]
19 | – | < 0.01 | CCCc1nc(C)c2c(=O)[nH]c(-c3cc(S(=O)(=O)N4CC(CCCO)C4)ccc3OCC)nn12 [Compound 44, 2-(2-ethoxy-5-((3-(3-hydroxypropyl)azetidin-1-yl)sulfonyl)phenyl)-5-methyl-7-propylimidazo[5,1-f][1,2,4]triazin-4(3H)-one]
20 | – | < 0.01 | CCCc1nc(C)c2c(=O)[nH]c(-c3cc(S(=O)(=O)NC4CN(CCO)C4)ccc3OCC)nn12 [Compound 46, 4-ethoxy-N-(1-(2-hydroxyethyl)azetidin-3-yl)-3-(5-methyl-4-oxo-7-propyl-3,4-dihydroimidazo[5,1-f][1,2,4]triazin-2-yl)benzenesulfonamide]
21 | – | < 0.01 | CCCc1nc(C)c2c(=O)[nH]c(-c3cc(S(=O)(=O)NC4CN(CCCO)C4)ccc3OCC)nn12 [Compound 47, 4-ethoxy-N-(1-(3-hydroxypropyl)azetidin-3-yl)-3-(5-methyl-4-oxo-7-propyl-3,4-dihydroimidazo[5,1-f][1,2,4]triazin-2-yl)benzenesulfonamide]
22 | – | < 0.01 | CCCc1nc(C)c2c(=O)[nH]c(-c3cc(S(=O)(=O)N4CC(NCCCO)C4)ccc3OCC)nn12 [Compound 50, 2-(2-ethoxy-5-((3-((3-hydroxypropyl)amino)azetidin-1-yl)sulfonyl)phenyl)-5-methyl-7-propylimidazo[5,1-f][1,2,4]triazin-4(3H)-one]
23 | – | < 0.01 | CCCc1nc(C)c2c(=O)[nH]c(-c3cc(S(=O)(=O)N4CC(N(C)CCO)C4)ccc3OCC)nn12 [Compound 52, 2-(2-ethoxy-5-((3-((2-hydroxyethyl)(methyl)amino)azetidin-1-yl)sulfonyl)phenyl)-5-methyl-7-propylimidazo[5,1-f][1,2,4]triazin-4(3H)-one]
24 | – | < 0.01 | CCCc1nc(C)c2c(=O)[nH]c(-c3cc(S(=O)(=O)N4CC(CCO[N+](=O)[O-])C4)ccc3OCC)nn12 [Compound 57, 2-(1-((4-ethoxy-3-(5-methyl-4-oxo-7-propyl-3,4-dihydroimidazo[5,1-f][1,2,4]triazin-2-yl)phenyl)sulfonyl)azetidin-3-yl) ethyl nitrate]
25 | – | < 0.01 | CCCc1nc(C)c2c(=O)[nH]c(-c3cc(S(=O)(=O)N4CC(CCCO[N+](=O)[O-])C4)ccc3OCC)nn12 [Compound 58, 3-(1-((4-ethoxy-3-(5-methyl-4-oxo-7-propyl-3,4-dihydroimidazo[5,1-f][1,2,4]triazin-2-yl)phenyl)sulfonyl)azetidin-3-yl) propyl nitrate]
26 | – | < 0.01 | CCCc1nc(C)c2c(=O)[nH]c(-c3cc(S(=O)(=O)NC4CN(CCO[N+](=O)[O-])C4)ccc3OCC)nn12 [Compound 59, 2-(3-((4-ethoxy-3-(5-methyl-4-oxo-7-propyl-3,4-dihydroimidazo[5,1-f][1,2,4]triazin-2-yl)phenyl)sulfonamido)azetidin-1-yl)ethyl nitrate]
27 | – | < 0.01 | CCCc1nc(C)c2c(=O)[nH]c(-c3cc(S(=O)(=O)NC4CN(CCCO[N+](=O)[O-])C4)ccc3OCC)nn12 [Compound 60, 3-(3-((4-ethoxy-3-(5-methyl-4-oxo-7-propyl-3,4-dihydroimidazo[5,1-f][1,2,4]triazin-2-yl)phenyl)sulfonamido)azetidin-1-yl)propyl nitrate]
28 | – | < 0.01 | CCCc1nc(C)c2c(=O)[nH]c(-c3cc(S(=O)(=O)N4CC(NCCO[N+](=O)[O-])C4)ccc3OCC)nn12 [Compound 61, 2-((1-((4-ethoxy-3-(5-methyl-4-oxo-7-propyl-3,4-dihydroimidazo[5,1-f][1,2,4]triazin-2-yl)phenyl)sulfonyl)azetidin-3-yl)amino)ethyl nitrate]
29 | – | < 0.01 | CCCc1nc(C)c2c(=O)[nH]c(-c3cc(S(=O)(=O)N4CC(N(C)CCCO[N+](=O)[O-])C4)ccc3OCC)nn12 [Compound 64, 3-((1-((4-ethoxy-3-(5-methyl-4-oxo-7-propyl-3,4-dihydroimidazo[5,1-f][1,2,4]triazin-2-yl)phenyl)sulfonyl)azetidin-3-yl)(methyl)amino)propyl nitrate]
